Laboratory results published in PubChem BioAssay AID248 (DTP/NCI, 2004).
Several values for one entry are separate records, joined by “and”; a condition that tells them apart may be missing. Equal entries are not always repeated. Toxic doses and inconclusive results are not listed.

System: L1210 leukemia ip in BDF1 mice, survival T/C
Assay: NCI In Vivo Anticancer Drug Screen. Data for tumor model L1210 Leukemia (intraperitoneal) in B6D2F1 (BDF1) mice
Conditions: endpoint: mean survival time, higher = longer survival
How it was run: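 Tumor cells were implanted, animals were treated, and survival was followed. The result divides the treated measurement by the vehicle-control measurement.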

[1] = dose: 100.0 mg/kg/injection, schedule: Q01DX009 (ip), vehicle: Klucel (hydroxypropylcellulose) (HPC)
[2] = dose: 100.0 mg/kg/injection, schedule: Q04DX003 (ip), vehicle: Klucel (hydroxypropylcellulose) (HPC)
[3] = dose: 200.0 mg/kg/injection, schedule: Q01DX009 (ip), vehicle: Klucel (hydroxypropylcellulose) (HPC)
[4] = dose: 400.0 mg/kg/injection, schedule: Q01DX009 (ip), vehicle: Klucel (hydroxypropylcellulose) (HPC)

**Q.** Which results are given for `O=C(NP(=O)(N1CC1)N1CC1)c1cc(I)ccc1I`?
**A.** T/C (dose: 1.0 mg/kg/injection, schedule: Q01DX001 (ip), vehicle: saline with Tween-80): 99 % of control; T/C (dose: 1.0 mg/kg/injection, schedule: Q01DX001 (ip), vehicle: saline): 95 % of control and 98 % of control; T/C (dose: 1.0 mg/kg/injection, schedule: Q01DX001 (oral), vehicle: saline with Tween-80): 106 % of control; T/C (dose: 1.0 mg/kg/injection, schedule: Q01DX001 (oral), vehicle: saline): 97 % of control; T/C (dose: 1.0 mg/kg/injection, schedule: Q01DX009 (ip), vehicle: saline with Tween-80): 103 % of control; T/C (dose: 1.0 mg/kg/injection, schedule: Q01DX009 (ip), vehicle: saline): 97 % of control; T/C (dose: 1.0 mg/kg/injection, schedule: Q04DX003 (ip), vehicle: saline with Tween-80): 107 % of control; T/C (dose: 1.0 mg/kg/injection, schedule: Q04DX003 (ip), vehicle: saline): 104 % of control and 111 % of control; T/C (dose: 2.0 mg/kg/injection, schedule: Q01DX001 (ip), vehicle: saline with Tween-80): 93 % of control; T/C (dose: 2.0 mg/kg/injection, schedule: Q01DX001 (ip), vehicle: saline): 100 % of control and 110 % of control; T/C (dose: 2.0 mg/kg/injection, schedule: Q01DX001 (oral), vehicle: saline with Tween-80): 100 % of control; T/C (dose: 2.0 mg/kg/injection, schedule: Q01DX001 (oral), vehicle: saline): 94 % of control; T/C (dose: 2.0 mg/kg/injection, schedule: Q01DX009 (ip), vehicle: saline with Tween-80): 105 % of control; T/C (dose: 2.0 mg/kg/injection, schedule: Q04DX003 (ip), vehicle: saline): 97 % of control and 111 % of control; T/C (dose: 4.0 mg/kg/injection, schedule: Q01DX001 (ip), vehicle: saline with Tween-80): 97 % of control; T/C (dose: 4.0 mg/kg/injection, schedule: Q01DX001 (ip), vehicle: saline): 100 % of control and 108 % of control; T/C (dose: 4.0 mg/kg/injection, schedule: Q01DX001 (oral), vehicle: saline with Tween-80): 107 % of control; T/C (dose: 4.0 mg/kg/injection, schedule: Q01DX001 (oral), vehicle: saline): 92 % of control; T/C (dose: 4.0 mg/kg/injection, schedule: Q01DX009 (ip), vehicle: saline with Tween-80): 101 % of control; T/C (dose: 4.0 mg/kg/injection, schedule: Q04DX003 (ip), vehicle: saline with Tween-80): 101 % of control; T/C (dose: 4.0 mg/kg/injection, schedule: Q04DX003 (ip), vehicle: saline): 97 % of control; T/C (dose: 8.0 mg/kg/injection, schedule: Q01DX001 (ip), vehicle: saline with Tween-80): 101 % of control; T/C (dose: 8.0 mg/kg/injection, schedule: Q01DX001 (ip), vehicle: saline): 99 % of control and 118 % of control; T/C (dose: 8.0 mg/kg/injection, schedule: Q01DX001 (oral), vehicle: saline with Tween-80): 101 % of control; T/C (dose: 8.0 mg/kg/injection, schedule: Q01DX001 (oral), vehicle: saline): 90 % of control; T/C (dose: 8.0 mg/kg/injection, schedule: Q01DX009 (ip), vehicle: saline with Tween-80): 121 % of control; T/C (dose: 8.0 mg/kg/injection, schedule: Q04DX003 (ip), vehicle: saline with Tween-80): 115 % of control; T/C (dose: 8.0 mg/kg/injection, schedule: Q04DX003 (ip), vehicle: saline): 102 % of control; T/C (dose: 16.0 mg/kg/injection, schedule: Q01DX001 (ip), vehicle: saline with Tween-80): 109 % of control; T/C (dose: 16.0 mg/kg/injection, schedule: Q01DX001 (ip), vehicle: saline): 100 % of control and 121 % of control; T/C (dose: 16.0 mg/kg/injection, schedule: Q01DX001 (oral), vehicle: saline with Tween-80): 102 % of control; T/C (dose: 16.0 mg/kg/injection, schedule: Q01DX001 (oral), vehicle: saline): 97 % of control; T/C (dose: 16.0 mg/kg/injection, schedule: Q04DX003 (ip), vehicle: saline): 104 % of control; T/C (dose: 32.0 mg/kg/injection, schedule: Q01DX001 (ip), vehicle: saline with Tween-80): 112 % of control; T/C (dose: 32.0 mg/kg/injection, schedule: Q01DX001 (ip), vehicle: saline): 99 % of control and 110 % of control; T/C (dose: 32.0 mg/kg/injection, schedule: Q01DX001 (oral), vehicle: saline with Tween-80): 101 % of control; T/C (dose: 32.0 mg/kg/injection, schedule: Q01DX001 (oral), vehicle: saline): 96 % of control; T/C (dose: 32.0 mg/kg/injection, schedule: Q01DX009 (ip), vehicle: saline with Tween-80): 155 % of control; T/C (dose: 32.0 mg/kg/injection, schedule: Q01DX009 (ip), vehicle: saline): 162 % of control; T/C (dose: 64.0 mg/kg/injection, schedule: Q01DX001 (ip), vehicle: saline with Tween-80): 111 % of control; T/C (dose: 64.0 mg/kg/injection, schedule: Q01DX001 (ip), vehicle: saline): 105 % of control and 116 % of control; T/C (dose: 64.0 mg/kg/injection, schedule: Q01DX001 (oral), vehicle: saline with Tween-80): 98 % of control; T/C (dose: 64.0 mg/kg/injection, schedule: Q01DX001 (oral), vehicle: saline): 100 % of control; T/C (dose: 64.0 mg/kg/injection, schedule: Q01DX009 (ip), vehicle: saline with Tween-80): 112 % of control; T/C (dose: 64.0 mg/kg/injection, schedule: Q01DX009 (ip), vehicle: saline): 183 % of control; T/C (dose: 128.0 mg/kg/injection, schedule: Q01DX001 (ip), vehicle: saline with Tween-80): 123 % of control; T/C (dose: 128.0 mg/kg/injection, schedule: Q01DX001 (ip), vehicle: saline): 114 % of control; T/C (dose: 128.0 mg/kg/injection, schedule: Q01DX001 (oral), vehicle: saline with Tween-80): 109 % of control; T/C (dose: 128.0 mg/kg/injection, schedule: Q01DX001 (oral), vehicle: saline): 93 % of control; T/C (dose: 128.0 mg/kg/injection, schedule: Q01DX009 (ip), vehicle: saline): 95 % of control; T/C (dose: 128.0 mg/kg/injection, schedule: Q04DX003 (ip), vehicle: saline with Tween-80): 176 % of control; T/C (dose: 128.0 mg/kg/injection, schedule: Q04DX003 (ip), vehicle: saline): 151 % of control and 159 % of control; T/C (dose: 256.0 mg/kg/injection, schedule: Q01DX001 (ip), vehicle: saline): 124 % of control; T/C (dose: 256.0 mg/kg/injection, schedule: Q01DX001 (oral), vehicle: saline): 120 % of control; T/C (dose: 256.0 mg/kg/injection, schedule: Q04DX003 (ip), vehicle: saline with Tween-80): 105 % of control; T/C (dose: 256.0 mg/kg/injection, schedule: Q04DX003 (ip), vehicle: saline): 164 % of control; T/C (dose: 512.0 mg/kg/injection, schedule: Q01DX001 (ip), vehicle: saline with Tween-80): 99 % of control; T/C (dose: 512.0 mg/kg/injection, schedule: Q01DX001 (oral), vehicle: saline): 122 % of control; T/C (dose: 512.0 mg/kg/injection, schedule: Q04DX003 (ip), vehicle: saline): 100 % of control

**Q.** How did the T/C [1] turn out when `COc1c([N+](=O)[O-])cc(C(=O)O)cc1[N+](=O)[O-]` was run?
**A.** 104 % of control

**Q.** And the T/C [2]?
**A.** 99 % of control

**Q.** What about the T/C [3] of the same compound?
**A.** 98 % of control

**Q.** And the T/C (dose: 200.0 mg/kg/injection, schedule: Q04DX003 (ip), vehicle: Klucel (hydroxypropylcellulose) (HPC))?
**A.** 97 % of control

**Q.** What about the T/C [4] of the same compound?
**A.** 98 % of control

**Q.** And the T/C (dose: 400.0 mg/kg/injection, schedule: Q04DX003 (ip), vehicle: Klucel (hydroxypropylcellulose) (HPC))?
**A.** 97 % of control

**Q.** `COc1cccc2c1OC1(N3CCOCC3)CCCCC1C2C[N+](=O)[O-]` (stereo not given) was tested. Which T/C [1] did it give?
**A.** 97 % of control

**Q.** And the T/C [3]?
**A.** 105 % of control

**Q.** And the T/C [4]?
**A.** 94 % of control

**Q.** For `Nc1ncnc2c1ncn2CCCNC(=O)c1cc([N+](=O)[O-])cc([N+](=O)[O-])c1`, which T/C (dose: 100.0 mg/kg/injection, schedule: Q01DX009 (ip), vehicle: saline) is on record?
**A.** 103 % of control

**Q.** And the T/C (dose: 200.0 mg/kg/injection, schedule: Q01DX009 (ip), vehicle: saline)?
**A.** 96 % of control

**Q.** What about the T/C (dose: 400.0 mg/kg/injection, schedule: Q01DX009 (ip), vehicle: saline) of the same compound?
**A.** 90 % of control

**Q.** For `Nc1ccc2c(c1)Cc1c(F)ccc(F)c1-2`, which T/C (dose: 50.0 mg/kg/injection, schedule: Q01DX001 (ip), vehicle: carboxymethylcellulose (CMC)) is on record?
**A.** 107 % of control

**Q.** And the T/C (dose: 100.0 mg/kg/injection, schedule: Q01DX001 (ip), vehicle: carboxymethylcellulose (CMC))?
**A.** 102 % of control

**Q.** And the T/C (dose: 200.0 mg/kg/injection, schedule: Q01DX001 (ip), vehicle: carboxymethylcellulose (CMC))?
**A.** 109 % of control

**Q.** What does the source list for `O=C(CCN1CC1)OCCc1ccccc1`?
**A.** T/C (dose: 20.0 mg/kg/injection, schedule: Q04DX003 (ip), vehicle: Klucel (hydroxypropylcellulose) (HPC)): 98 % of control; T/C (dose: 25.0 mg/kg/injection, schedule: Q01DX009 (ip), vehicle: Klucel (hydroxypropylcellulose) (HPC)): 111 % of control; T/C (dose: 40.0 mg/kg/injection, schedule: Q04DX003 (ip), vehicle: Klucel (hydroxypropylcellulose) (HPC)): 95 % of control; T/C (dose: 50.0 mg/kg/injection, schedule: Q01DX009 (ip), vehicle: Klucel (hydroxypropylcellulose) (HPC)): 97 % of control; T/C (dose: 80.0 mg/kg/injection, schedule: Q04DX003 (ip), vehicle: Klucel (hydroxypropylcellulose) (HPC)): 101 % of control; T/C [2]: 98 % of control
